Assay results from patent US7205382B2, “Peptides, the production and use thereof for binding immunoglobulins” (Fresenius Medical Care Affina GmbH, priority 2000, dated 2007).
Bridge positions count the residues as written; N and C are the ends. Square brackets hold non-standard residues; d marks the D form. Ends that are not written are not given here. βAla = NCCC(=O)O

Assays:
Format in all cases: binding
Design in all cases: key: No binding of immunoglobulin for the defined peptide variant, detection negative: 0; Binding of immunoglobulin for the defined peptide variant, detection positive: +
[1] = tested on: immunoglobulins in human plasma; experiment: Cellulose-immobilized 13-mer peptide variants incubated with human plasma, anti-human IgG-AP detection; conditions: human plasma as sample, diluted 1:10,000 in blocking buffer, 3 h room temperature
In short: (§1)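 Spot membrane, (βA)(βA) spacer; T-TBS pH 8.0 wash, block 5% saccharose/4% BSA. 3 h RT with IgG-Fc 1 μg/ml, serum 1:10,000, or block buffer only (specificity control). 3× wash, AP-anti-human IgG 1.2 μg/ml, NBT/BCIP in pH 9.5 buffer.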

[2] = tested on: serum albumin; experiment: Cellulose-immobilized 13-mer peptide variants incubated with serum albumin (negative control), anti-human IgG-AP detection; conditions: blocking buffer without addition, 3 h room temperature
In short: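 Peptides on cellulose via a (βA)(βA) spacer were blocked in T-TBS (pH 8.0) with 5% saccharose and 4% BSA, then exposed for 3 h at room temperature to IgG-Fc (1 μg/ml), serum diluted 1:10,000, or blocking buffer alone. Bound IgG was detected with AP-anti-human IgG (1.2 μg/ml) and NBT/BCIP colour development.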

[3] = tested on: human IgG-Fc; experiment: Cellulose-immobilized 13-mer peptide variants incubated with human IgG-Fc, anti-human IgG-AP detection; conditions: IgG-Fc 1 μg/ml in blocking buffer, 3 h room temperature
In short: as §1

| Substance | Result for incubation with human plasma (immunoglobulin binding detection) [1] | Result for incubation with serum albumin (immunoglobulin binding detection) [2] | Result for incubation with human IgG-Fc (immunoglobulin binding detection) [3] |
| --- | --- | --- | --- |
| 04K: cellulose-bound 13-mer variant DCAKHLGELVWCT-(βA)(βA) (DCAKHLGELVWCT[βAla][βAla]; disulfide 2-12 (inferred); also: cellulose-bound) | + | 0 | + |
| 04L: cellulose-bound 13-mer variant DCALHLGELVWCT-(βA)(βA) (DCALHLGELVWCT[βAla][βAla]; disulfide 2-12 (inferred); also: cellulose-bound) | 0 | 0 | + |
| 04M: cellulose-bound 13-mer variant DCAMHLGELVWCT-(βA)(βA) (DCAMHLGELVWCT[βAla][βAla]; disulfide 2-12 (inferred); also: cellulose-bound) | + | 0 | + |
| 04N: cellulose-bound 13-mer variant DCANHLGELVWCT-(βA)(βA) (DCANHLGELVWCT[βAla][βAla]; disulfide 2-12 (inferred); also: cellulose-bound) | 0 | 0 | + |
| 04P: cellulose-bound 13-mer variant DCAPHLGELVWCT-(βA)(βA) (disulfide 2-12 (inferred); not fully specified (N-terminus, C-terminus); printed as DCAPHLGELVWCT-(βA)(βA); also: cellulose-bound) | 0 | 0 | 0 |
| 04Q: cellulose-bound 13-mer variant DCAQHLGELVWCT-(βA)(βA) (disulfide 2-12 (inferred); not fully specified (N-terminus, C-terminus); printed as DCAQHLGELVWCT-(βA)(βA); also: cellulose-bound) | 0 | 0 | + |
| 04R: cellulose-bound 13-mer variant DCARHLGELVWCT-(βA)(βA) (disulfide 2-12 (inferred); not fully specified (N-terminus, C-terminus); printed as DCARHLGELVWCT-(βA)(βA); also: cellulose-bound) | + | 0 | + |
| 04S: cellulose-bound 13-mer variant DCASHLGELVWCT-(βA)(βA) (disulfide 2-12 (inferred); not fully specified (N-terminus, C-terminus); printed as DCASHLGELVWCT-(βA)(βA); also: cellulose-bound) | + | 0 | + |
| 04T: cellulose-bound 13-mer variant DCATHLGELVWCT-(βA)(βA) (disulfide 2-12 (inferred); not fully specified (N-terminus, C-terminus); printed as DCATHLGELVWCT-(βA)(βA); also: cellulose-bound) | + | 0 | + |
| 04V: cellulose-bound 13-mer variant DCAVHLGELVWCT-(βA)(βA) (disulfide 2-12 (inferred); not fully specified (N-terminus, C-terminus); printed as DCAVHLGELVWCT-(βA)(βA); also: cellulose-bound) | + | 0 | + |
| 04Y: cellulose-bound 13-mer variant DCAYHLGELVWCT-(βA)(βA) (disulfide 2-12 (inferred); not fully specified (N-terminus, C-terminus); printed as DCAYHLGELVWCT-(βA)(βA); also: cellulose-bound) | + | 0 | + |
| 05A: cellulose-bound 13-mer variant DCAWALGELVWCT-(βA)(βA) (disulfide 2-12 (inferred); not fully specified (N-terminus, C-terminus); printed as DCAWALGELVWCT-(βA)(βA); also: cellulose-bound) | 0 | 0 | 0 |
| 05C: cellulose-bound 13-mer variant DCAWCLGELVWCT-(βA)(βA) (not fully specified (N-terminus, C-terminus, bridges); printed as DCAWCLGELVWCT-(βA)(βA); cysteine pairing not given here; also: cellulose-bound) | 0 | 0 | 0 |
| 05D: cellulose-bound 13-mer variant DCAWDLGELVWCT-(βA)(βA) (disulfide 2-12 (inferred); not fully specified (N-terminus, C-terminus); printed as DCAWDLGELVWCT-(βA)(βA); also: cellulose-bound) | 0 | 0 | 0 |
| 05E: cellulose-bound 13-mer variant DCAWELGELVWCT-(βA)(βA) (disulfide 2-12 (inferred); not fully specified (N-terminus, C-terminus); printed as DCAWELGELVWCT-(βA)(βA); also: cellulose-bound) | 0 | 0 | 0 |
| 05F: cellulose-bound 13-mer variant DCAWFLGELVWCT-(βA)(βA) (disulfide 2-12 (inferred); not fully specified (N-terminus, C-terminus); printed as DCAWFLGELVWCT-(βA)(βA); also: cellulose-bound) | 0 | 0 | 0 |
| 05G: cellulose-bound 13-mer variant DCAWGLGELVWCT-(βA)(βA) (disulfide 2-12 (inferred); not fully specified (N-terminus, C-terminus); printed as DCAWGLGELVWCT-(βA)(βA); also: cellulose-bound) | 0 | 0 | 0 |
| 05I: cellulose-bound 13-mer variant DCAWILGELVWCT-(βA)(βA) (disulfide 2-12 (inferred); not fully specified (N-terminus, C-terminus); printed as DCAWILGELVWCT-(βA)(βA); also: cellulose-bound) | 0 | 0 | 0 |
| 05K: cellulose-bound 13-mer variant DCAWKLGELVWCT-(βA)(βA) (disulfide 2-12 (inferred); not fully specified (N-terminus, C-terminus); printed as DCAWKLGELVWCT-(βA)(βA); also: cellulose-bound) | 0 | 0 | 0 |
| 05L: cellulose-bound 13-mer variant DCAWLLGELVWCT-(βA)(βA) (disulfide 2-12 (inferred); not fully specified (N-terminus, C-terminus); printed as DCAWLLGELVWCT-(βA)(βA); also: cellulose-bound) | 0 | 0 | 0 |
| 05M: cellulose-bound 13-mer variant DCAWMLGELVWCT-(βA)(βA) (disulfide 2-12 (inferred); not fully specified (N-terminus, C-terminus); printed as DCAWMLGELVWCT-(βA)(βA); also: cellulose-bound) | 0 | 0 | 0 |
